Measurements reported in US20250281430A1, “BUPROPION AS A MODULATOR OF DRUG ACTIVITY” (ANTECIP BIOVENTURES II LLC, priority 2022, published 2025).
Structures can show the parent of a compound that is named as a salt.

Assays:
[1] = Pharmacokinetics after administration of the subject combination; conditions: for Cmax relative to the peak level of bupropion: after administration of the subject combination; for apparent elimination half-life (metabolite): subject combination
[2] = Solubility of the powder in water; format: physicochemical

Row | Compound | Cmax relative to the peak level of bupropion [1] | apparent elimination half-life (metabolite) [1] | solubility in water [2] | dose proportionality of pharmacokinetics (AUC and Cmax) ([1]; co-administered with bupropion, steady state, dextromethorphan 30 to 60 mg, bupropion 75 to 150 mg) | Cmax when administered with food ([1]; subject combination with food)
1 | C[C@H]1NC(C)(C)CO[C@]1(O)c1cccc(Cl)c1 [hydroxybupropion] | approximately 14 times | approximately 35 hours |  |  | 
2 | C[C@H](NC(C)(C)C)[C@@H](O)c1cccc(Cl)c1 [threohydroxybupropion] | about 5 times | ~33 h |  |  | 
3 | CC(NC(C)(C)C)C(=O)c1cccc(Cl)c1 (racemic) [Bupropion hydrochloride, (±)-1-(3-chlorophenyl)-2-[(1,1-dimethylethyl)amino]-1-propanone hydrochloride] |  |  | highly soluble in water |  | 
4 | CC(NC(C)(C)C)C(O)c1cccc(Cl)c1 (stereo not drawn) [erythrohydroxybupropion] | approximately equal to | ~44 h |  |  | 
5 | COc1ccc2c(c1)[C@]13CCCC[C@@H]1[C@H](C2)N(C)CC3 [dextromethorphan, reference compound] |  |  |  | nonlinear pharmacokinetics at steady state | unchanged
